Legend:
Assay in all cases: qRT-PCR expression of induced resistance gene in pine tree callus
Assay type in all cases: cell-based
Details in all cases: 200 µg/mℓ, 24 hours
PR_2 family = system: PR_2 family
Protocol: (§1) For in vitro analysis of induced resistance, the expression of PR genes and other plant defense-related genes was determined, which are evolved in various defense mechanisms including induced resistance. The primers of sixteen induced resistance-related genes of pine tree used in this invention were listed in the below and elongation factor_1 alpha were used as a reference gene. [Table 4] The primer list of defense resistance-related genes
(§2) After the treatment with 200 µg / mℓ of candidates of the selected induced resistance material, expression of the induced resistance-related gene in pine callus was determined by qRT-PCR using the primer pairs of defense resistance-related genes in Table 4. As a candidate group of an induced resistance material in pine tree, acibenzolar-S-methyl (ASM), TDL (Tiadinil), ITL (Isotianil), PBZ (Probenzole), AZO (Azoxystrobin), VMA (Validamycin A), MeJA (Methyl jasmonate), BABA (DL-3-aminobutyric acid), 2,3-BDO (2,3-Butanediol), GABA (r-Aminobutyric acid), glucan (Glucan), ER (Ergosterol), and AZA (Azelaic acid) were used. For the in vitro analysis of the expression of induced resistance gene in pine callus, the selected induced resistance materials were applied with 500 µℓ of LM liquid medium on a surface of pine tree callus (100 mg) in 12-well microplate to give final concentration of 200 µg/mℓ. Then, the callus surface was sufficiently reacted for 24 hours with the candidate of pine tree induced resistance material by shaking at 50 rpm in a 25 °C shaking incubator under dark condition. RNAs were extracted from the callus after completion of the reaction with an induced resistance material, followed by synthesis of cDNAs. Then, by carrying out qRT-PCR, the expression of induced resistance genes was determined. [Table 5] Expression of induced resistance gene in pine tree callus by TDL, PBZ, ASM, ITL, AZO, VMA, glucan, and AZA
(§3) Based on the results of assay using young plants and gene expression by selected induce resistance materials, it seemed that acibenzolar-S-methyl had the most excellent effect. Thus, the following tests were carried out using acibenzolar-S-methyl only. Expression of the induced resistance genes at different culture time after the chemical treatment was examined. For the in vitro assay, LM medium containing pine tree callus was treated with acibenzolar-S-methyl at concentration of 200 µg / mℓ, followed by reaction for 1 day, 7 days, or 14 days in a 25°C shaking incubator under dark condition. RNAs were extracted from the callus after the reaction followed by synthesis of cDNAs. Then, by carrying out qRT-PCR, the expression of the induced resistance genes was determined. Depending on reaction time after the treatment, i.e., after 1 day, 7 days, or 14 days, the expression of the obtained induced resistance genes was examined. As a result of the in vitro callus assay depending on reaction time after the treatment with acibenzolar-S-methyl, the expression of the induced resistance-related genes is the highest at 1 day after the treatment with acibenzolar-S-methyl and gradually diminished over time, as it is shown in Table 7. In this regard, it is contemplated that the expression of genes acquired by acibenzolar-S-methyl is not maintained in highly expressed state until the pathogen invasion and just memorized with at minimum level so that the energy consumption by plant can be efficiently managed. [Table 7] Expression of induced resistance gene in pine tree callus by acibenzolar-S-methyl depending on reaction time
(§4) To have an in vitro assay according to different methods of treatment with acibenzolar-S-methyl, two separate treatment methods, i.e., surface treatment (spraying treatment) of pine tree callus and direct application of the induced resistance material to an LM medium containing pine tree callus, were performed. […]

PR_5 family = system: PR_5 family
Protocol: as §1, §2, §3, §4

PR_4 family = system: PR_4 family
Protocol: as §1, §2, §3, §4

PR_1b family = system: PR_1b family
Protocol: as §1, §2, §3, §4

PR_3 family class 1 = system: PR_3 family class 1
Protocol: as §1, §2, §3, §4

Xyloglucan = system: Xyloglucan
Protocol: as §1, §2, §3, §4

Extensin = system: Extensin
Protocol: as §1, §2, §3, §4

Hydroxyproline = system: Hydroxyproline
Protocol: as §1, §2, §3, §4

Heat shock 70 = system: Heat shock 70
Protocol: as §1, §2, §3, §4

Metallothionein = system: Metallothionein
Protocol: as §1, §2, §3, §4

Antipeptide = system: Antipeptide
Protocol: as §1, §2, §3, §4

PR_3 family class 4 = system: PR_3 family class 4
Protocol: as §1, §2, §3, §4

PR_10 family = system: PR_10 family
Protocol: as §1, §2, §3, §4

PR_9 family = system: PR_9 family
Protocol: as §1, §2, §3, §4

Structure (SMILES) | Expression of induced resistance gene, PR_2 family (PR_2 family) | Expression of induced resistance gene, PR_5 family (PR_5 family) | Expression of induced resistance gene, PR_4 family (PR_4 family) | Expression of induced resistance gene, PR_1b family (PR_1b family) | Expression of induced resistance gene, PR_3 family class 1 (PR_3 family class 1) | Expression of induced resistance gene, Xyloglucan (Xyloglucan) | Expression of induced resistance gene, Extensin (Extensin) | Expression of induced resistance gene, Hydroxyproline (Hydroxyproline) | Expression of induced resistance gene, Heat shock 70 (Heat shock 70) | Expression of induced resistance gene, Metallothionein (Metallothionein) | Expression of induced resistance gene, Antipeptide (Antipeptide) | Expression of induced resistance gene, PR_3 family class 4 (PR_3 family class 4) | Expression of induced resistance gene, PR_10 family (PR_10 family) | Expression of induced resistance gene, PR_9 family (PR_9 family)
Cc1ccc(NC(=O)c2snnc2C)cc1Cl [TDL, Tiadinil] | 0.98 | 1.33 | 1.24 | 1.05 | 0.82 | 1.23 | 1.05 | 0.97 | 0.29 | 0.1 | 0.64 | 1.22 | 1.19 | 1.48
CO/C=C(/C(=O)OC)c1ccccc1Oc1cc(Oc2ccccc2C#N)ncn1 [AZO, Azoxystrobin] | 1.8 | 1.52 | 2.04 | 1.66 | 1.11 | 1.93 | 2.01 | 1.11 | 0.38 | 0.14 | 0.69 | 1.01 | 1.4 | 1.92
CC/C=C\CC1C(=O)CCC1CC(=O)OC (stereo not drawn) [MeJA, Methyl jasmonate] | 0.47 | 0.95 | 5.86 | 0.5 | 0.54 | 0.44 | 0.93 | 0.53 | 0.69 | 0.21 | 0.43 | 0.79 | 1.34 | 0.47
OCC1=C[C@@H](N[C@H]2C[C@H](CO)[C@@H](O[C@H]3O[C@@H](CO)[C@H](O)[C@@H](O)[C@@H]3O)[C@H](O)[C@H]2O)[C@H](O)[C@@H](O)[C@@H]1O [VMA, Validamycin A] | 0.83 | 4.66 | 1.43 | 0.73 | 1.67 | 1.99 | 0.66 | 2.31 | 2.19 | 0.99 | 2.36 | 2.95 | 1.56 | 1.37
CC(C)[C@@H](C)/C=C/[C@@H](C)[C@H]1CC[C@H]2C3=CC=C4C[C@@H](O)CC[C@]4(C)[C@H]3CC[C@]12C [ER, Ergosterol] | 1.17 | 1.05 | 1.13 | 1.14 | 1.06 | 1.05 | 1.06 | 1.42 | 1.91 | 1.37 | 2.11 | 0.81 | 1.21 | 1.35
C=CCOC1=NS(=O)(=O)c2ccccc21 [PBZ, Probenzole] | 0.46 | 1.99 | 0.46 | 0.26 | 1.04 | 1.41 | 1.62 | 1.21 | 0.73 | 0.25 | 1.11 | 0.74 | 2.08 | 2.52
O=C(O)CCCCCCCC(=O)O [AZA, Azelaic acid] | 1.02 | 1.45 | 0.99 | 1.15 | 1.12 | 0.76 | 1.15 | 0.9 | 1.42 | 1.97 | 1.43 | 1.16 | 1.16 | 1.27
NCCCC(=O)O [GABA, r-Aminobutyric acid] | 1.66 | 3.78 | 1.95 | 1.78 | 3.07 | 3.46 | 1.83 | 5.98 | 2.58 | 0.92 | 1.13 | 8.75 | 1.57 | 0.7
CC(N)CC(=O)O (racemic) [BABA, DL-3-aminobutyric acid] | 0.43 | 0.92 | 7.01 | 0.48 | 0.81 | 0.53 | 0.78 | 0.36 | 0.59 | 1.17 | 0.4 | 0.51 | 1.23 | 0.43

Reference: patent EP3685668B1, “COMPOSITION COMPRISING ACIBENZOLAR-S-METHYL AS EFFECTIVE INGREDIENT FOR CONTROLLING BURSAPHELENCHUS XYLOPHILUS DISEASE AND METHOD FOR CONTROLLING BURSAPHELENCHUS XYLOPHILUS USING SAME” (Industry Foundation of Chonnam National University, priority 2017, dated 2019)
